Experiments:
[1] = test system: Human Dermal Fibroblast (HDF) cells; experiment: Bioactivity study: HDF proliferation, CellTiter-Blue assay, untreated samples; assay type: cell-based; conditions: no stress, samples stored at −80° C. before use; 1 ng/ml bFGF or bFGF in conjugate; 72 hours; normalized to blank
Experimental: (§1) Preparation of untreated and treated samples is detailed in the Methods section. The concentrations of bFGF and bFGF in the conjugates under treatment were 0.05 ng/μL. The concentration of heparin under treatment was 0.075 ng/μl or 0.05 μg/μl, while the concentrations of the unconjugated polymers were 0.075 ng/μl. The final concentrations of bFGF and bFGF conjugates in the medium were 1 ng/ml. Incubation of HDF with each of the samples was carried out for 72 hours. CellTiter® blue assay was performed to quantify percent cell growth. Data was normalized to the blank sample (no bFGF added) in that same treatment group. Each sample was done with six repeats, and the whole experiment was repeated eight times including one blinded study, except (+)bFGF(+)1.5 ng/ml pPEGMA and (+)bFGF-pPEGMA were repeated four times. Error bars are SEM. Statistical analysis was done using two-way ANOVA and Student's T-test. * denotes p<0.05, ** denotes p<0.01 and *** denotes p<0.001 between the sample indicated and the (+) bFGF (−) heparin within that same stress set.
HDF cells were trypsinized and resuspended in UltraCULTURE™ serum-free medium supplemented with 2 mM L-Glutamine and 100 u/ml penicillin and 100 μg/ml streptomycin. The cells were plated at a concentration of 2000 cells/well in a 96-well plate and allowed to adhere over 16 hours at 37° C., 5% CO2. […] Then, the medium in the wells was replaced with 100 μl of each sample. After an incubation for 72 hours at 37° C., 5% CO2, CellTiter-Blue® assay was carried out to evaluate cell proliferation. […] Each group was done with six replicates, and the whole experiment was repeated four times, one of which was a blinded study.
HDFs were used as the in vitro model to evaluate the bioactivity of the bFGF-heparin mimicking polymer conjugate before and after exposure to various stresses.

[2] = test system: Human Dermal Fibroblast (HDF) cells; experiment: Bioactivity after 4-week storage at 4° C., HDF proliferation; assay type: cell-based; conditions: 4 weeks of storage at 4° C., then 1 ng/ml on HDF for 72 hours
Experimental: FIG. 4B depicts exemplary bioactivity study of bFGF-heparin mimicking (bFGF-pSS-co-PEGMA) conjugate in promoting HDF proliferation compared to other control groups before and after the treatments. Preparation of untreated and treated samples is detailed in the Methods section. The concentrations of bFGF and bFGF in the conjugates under treatment were 0.05 ng/μL. The concentration of heparin under treatment was 0.075 ng/μl or 0.05 μg/μl, while the concentrations of the unconjugated polymers were 0.075 ng/μl. The final concentrations of bFGF and bFGF conjugates in the medium were 1 ng/ml. Bioactivity study of bFGF-heparin mimicking polymer, bFGF-pSS-co-PEGMA conjugate, after 4-week storage at 4° C. Data was normalized to the blank sample (contained medium only). Each group was done with six replicates.
Bioactivity study of bFGF-pSS-co-PEGMA conjugate after long-time storage was also tested. After 4 weeks of storage 4° C.
In these experiments, an amount of 30 μl of each experimental group in D-PBS was made up to contain 0.05 ng/μ1 of bFGF or bFGF-pSS-co-PEGMA conjugate. The positive control group was prepared to contain 0.05 ng/μl of bFGF and 0.05 μg/μl of heparin. The samples were then stored at 4° C. for 4 weeks. […]

BaF3 cells (FR1C-11) = experiment: Proliferation study of BaF3 cells expressing FGFR1 and lacking heparan sulfate proteoglycans; assay type: cell-based; conditions: 42 hours, medium lacking IL-3, normalized to blank; for percent cell growth, bFGF or conjugate alone: 1 ng/ml, without heparin
Experimental: BaF3 cells (FR1C-11), which express FGFR1 but lack heparin sulfate proteoglycans, were seeded at a density of 20,000 cells/well in cultured medium lacking IL-3 in a 96-well-plate. […] The cells were incubated for 42 hours. CellTiter® blue assay was performed to quantify percent cell growth. Data was normalized to blank sample group. Each group was done with six replicates. Error bars are standard deviations.
Heparin (as cell surface receptors called heparan sulfate proteoglycans) is also known to increase the mitogenic activity of bFGF by increasing binding to the bFGF receptors (FGFRs). In addition, heparin promotes bFGFR dimerization by providing the “glue” between two bFGFs and two FGFRs (see crystal structure, FIGS. 12B and 12C). In fact, this heparin assisted, ligand-induced dimerization of bFGFRs is required for activity. […] In some embodiments, the new heparin mimicking polymer can induce the dimerization and uptake the FGFRs.
While bFGF interacts directly with cells by binding to FGFRs, signal transduction cannot occur without the simultaneous interaction with heparan sulfate proteoglycan (HS) cell surface receptors. […] BaF3 cells are engineered to express FGFR1 and lack cell-surface HS; addition of soluble heparin is required to activate the cells with bFGF.

[3] = test system: Human Dermal Fibroblast (HDF) cells; experiment: Stability study of bFGF and bFGF conjugates under treatments, read out as HDF proliferation; assay type: cell-based; conditions: for percent cell growth after trypsin treatment: 0.1% w/v trypsin for 16 hours at 4° C.; for bioactivity after mildly acidic conditions: pH 4.7 for 16 hours at 4° C.; for percent cell growth after storage: storage at 4° C. for 16 hours
Experimental: as §1
To study the stability of bFGF and bFGF conjugates under various treatments (storage, acidic conditions, protease degradation, and heat), the protein and the conjugates were diluted in medium after these treatments and tested for their bioactivity in promoting HDF proliferation.
The control blank group contained 15 μl of D-PBS. The 15 μl/experimental group was split into 4 vials of 3 μl/vial for four separate treatments. In one set of the 3 μl-vials, 27 μl of D-PBS was added to each vial and the samples were stored at 4° C. for 16 hours. In another set of 3 μl-vials, 27 μl of pH 4.7 PBS was added to each vial and the samples were stored at 4° C. for 16 hours. In the third set of 3 μl-vials, 27 μl of 0.1% Trypsin was added to each vial and the samples were stored at 4° C. for 16 hours. The fourth set of 3 μl-vials were stored at 4° C. for 16 hours before 27 μl of 1% TFA was added and treated for 2 hours at 4° C. The samples under no treatment and under heat treatment were prepared fresh in the same way towards the end of the 16 hour-treatment of other samples. The samples under heat treatment were placed in dry bath at 55° C. for 30 minutes. […] Then, the medium samples were used for cell proliferation assay as described above. After an incubation for 72 hours at 37° C., 5% CO2, CellTiter-Blue® assay was carried out to evaluate cell proliferation. […] Each group was done with six replicates, and the whole experiment was repeated four times, one of which was a blinded study. A two-way ANOVA and student's T-test were done for statistical analysis.
The chosen treatments represent environmental stresses that the growth factor (or any heparin-binding protein) could be exposed to. For example, storage in the unfrozen form and exposure to heat during delivery, transport, or use were represented by the “Storage at 4° C. for 16 hours” treatment and “Heat at 55° C. for 30 minutes” treatment, respectively. Incubation at “pH 4.7 for 16 hours” is relevant because mildly acidic conditions are necessary to inhibit bacterial growth during wound treatment.
Furthermore, the stability of the bFGF-heparin mimicking conjugate was challenged against proteolytic degradation and extreme acidic conditions by incubating with 0.1% w/v trypsin for 16 hours and 1% trifluoroacetic acid (TFA) for 2 hours, respectively. The starting concentrations of bFGF and bFGF in the conjugates were equivalent and the concentrations of the unconjugated polymers and heparin were the same at approximately stoichiometric ratios to bFGF. The positive control group contained a large excess (700 molar) of heparin to bFGF. The negative control was native bFGF alone.

[4] = test system: Human Dermal Fibroblast (HDF) cells; assay type: cell-based; conditions: 1 ng/ml bFGF or conjugate, 72 hours, with 125 nM PD173074
Experimental: FIG. 6 depicts the exemplary results of an inhibition assay. The medium samples were prepared with and without 125 nM of PD173074. 2,000HDF cells/well was incubated with each of the sample for 72 hours at 37° C., 5% CO2. Each sample group was done with six replicates, and the whole experiment was repeated three times.
To confirm that the bFGF-heparin mimicking conjugate promoted cell growth by the same transduction pathway as by native bFGF, a potent inhibitor for FGF receptor 1 (FGFR1) was included in the media. PD173074 (N-[2-[[4-(diethylamino)butyl]amino]-6-(3, 5-dimethoxyphenyl)pyrido[2, 3-d]pyrimidin-7-yl]-N′-(1, 1-dimethylethyl)-urea) competes with adenosine-5′-triphosphate (ATP) for binding to the receptors, a key step for FGFR phosphorylation, and shuts down the signal transduction pathways associated with cell proliferation.
HDF cells were trypsinized and resuspended in UltraCULTURE™ serum-free medium supplemented with 2 mM L-Glutamine and 100 u/ml penicillin and 100 μg/ml streptomycin. […] On the next day, the experimental groups were prepared to contain 1 ng/ml of bFGF, or 1 ng/ml of bFGF with 1 μg/ml of heparin, or 1 ng/ml of bFGF-pSS-co-PEGMA; all with an addition of 125 nM of the inhibitor PD173074. The control groups were the replicates but without the addition of the inhibitor. Then, the medium in the wells was replaced with 100 μl of each sample. […]

[5] = test system: Human Dermal Fibroblast (HDF) cells; conditions: 1 ng/ml to 1 mg/ml for 24 hours in the absence of bFGF
Experimental: 5,000 HDF cells/well was incubated with various concentrations of each polymer for 24 hours at 37° C., 5% CO2. Then, each well was washed twice with D-PBS and subsequently incubated with 1 μM Calcein AM 4 μM Ethidium homodimer-1 in D-PBS for 20 minutes at 37° C., 5% CO2. Percentage of live cells was calculated by dividing the number of live cells by the total number of live and dead cells. Each experimental group was done with four replicates, and the whole experiment was repeated four times, one of which was a blinded study. Error bars are SEMs.
HDF cells were trypsinized and resuspended in fibroblast growth medium lacking bFGF. The cells were plated at a concentration of 5000 cells/well in a 48-well plate and allowed to adhere over 16 hours at 37° C., 5% CO2. Then, the medium in the wells was replaced with 200 μl of the working medium containing various amount of polymer/heparin. After an incubation of 24 hours at 37° C., 5% CO2, cell viability was assessed using LIVE/DEAD® viability/cytotoxicity assay. Briefly, the cells were washed twice with pre-warmed D-PBS, then incubated with 200 μl of 1 μM Calcein AM and 4 μM Ethidium homodimer-1 in D-PBS for 20 minutes at 37° C., 5% CO2. […] The numbers of live and dead cells were counted manually using NIH Image J software, and percent live cells was calculated by dividing the number of live cells by the total number of live and dead cells. […]

[6] = then 1 ng/ml on HDF for 72 hours

| Substance | percent cell growth [1] [%] | activity after long-time storage [2] | percent cell growth, bFGF or conjugate alone (BaF3 cells (FR1C-11)) | percent cell growth, bFGF or conjugate alone (BaF3 cells (FR1C-11); listed as bFGF-pSS-co-pPEGMA) [%] | percent cell growth after trypsin treatment [3, 6] | percent cell growth after TFA treatment ([3]; 1% trifluoroacetic acid (TFA) for 2 hours, then 1 ng/ml on HDF for 72 hours) [%] | percent cell growth after heat treatment ([3]; heat at 55° C. for 30 minutes, then 1 ng/ml on HDF for 72 hours) [%] | bioactivity after mildly acidic conditions [3, 6] | percent cell growth after storage [3, 6] | stability to the treatments (overall) ([3]; storage, pH 4.7, trypsin, 1% TFA, heat, read out as HDF proliferation) | percent cell growth in the presence of PD173074 [4] [%] | percent cell viability [5] | percent cell growth, additive given with bFGF (BaF3 cells (FR1C-11); 1 μg/ml of additive with 1 ng/ml of bFGF) [%] |
| --- | --- | --- | --- | --- | --- | --- | --- | --- | --- | --- | --- | --- | --- |
| bFGF-pSS-co-PEGMA: bFGF covalently conjugated via a reversible disulfide bond to one heparin mimicking polymer pSS-co-PEGMA (mono-conjugate) | 213±13 | completely retained | did not induce cell growth | 147±14 | 176±11% | 162±17 | 167±12 | statistically the same as before treatment | 210±10% | stable | 85±11 |  |  |
| bFGF-poly(ethylene glycol) methyl ether methacrylate) [bFGF-pPEGMA, reference compound] | 190±6 |  |  |  | some stability |  |  | some stability | some stability |  |  |  |  |
| bFGF: Basic fibroblast growth factor, a 16-kDa polypeptide, also called fibroblast growth factor 2 | 192±9 |  | 127±12% |  |  |  |  |  |  |  | 88±5 |  |  |
| heparin [reference compound] |  |  |  |  |  |  |  |  |  |  |  | the same as no polymer added | 384±35 |

From patent US10039807B2, “bFGF-polymer conjugates, methods for making the same and applications thereof” (THE REGENTS OF THE UNIVERSITY OF CALIFORNIA, priority 2011, dated 2018)
